From ChEMBL document CHEMBL3885881, “DrugMatrix”

Organism: Rattus norvegicus
Assay: DrugMatrix - Regimen: Daily Repeat
Assay type: toxicity, organism-based, Sprague-Dawley
Design: regimen Daily Repeat, gender Male, age 6-8 weeks
Conditions: in vivo, po, route oral GAVAGE, […]; for ABSOLUTE BASOPHIL / ABSOLUTE EOSINOPHIL / ABSOLUTE LYMPHOCYTE / ABSOLUTE MONOCYTE / ABSOLUTE SEGMENTED NEUTROPHIL / BASOPHIL / EOSINOPHIL / ERYTHROCYTE COUNT / HEMATOCRIT / HEMOGLOBIN / LEUKOCYTE COUNT / LYMPHOCYTE / MEAN CORPUSCULAR HEMOGLOBIN / MEAN CORPUSCULAR HEMOGLOBIN CONCENTRATION / MEAN CORPUSCULAR VOLUME / MONOCYTE / NEUTROPHIL / NUCLEATED RED BLOOD CELLS / PLATELET COUNT: tissue Blood; for ALANINE AMINOTRANSFERASE / ALBUMIN / ALKALINE PHOSPHATASE / ASPARTATE AMINOTRANSFERASE / BLOOD UREA NITROGEN / CARBON DIOXIDE / CHLORIDE / CHOLESTEROL / CREATINE PHOSPHOKINASE / CREATININE / GLUCOSE / LACTATE DEHYDROGENASE / LIPASE / PHOSPHORUS / POTASSIUM / SODIUM / TOTAL BILIRUBIN / TOTAL PROTEIN / URIC ACID: tissue Plasma
[1] = 100 mg/kg, 120 h, dose level Low, time 5 day
[2] = 448 mg/kg, 72 h, dose level High, time 3 day
[3] = 448 mg/kg, 120 h, dose level High, time 5 day

For CC(C)(Oc1ccc(Cl)cc1)C(=O)O [CLOFIBRIC ACID], the “ABSOLUTE BASOPHIL” value [1] was 0 CELLS/uL, the “ABSOLUTE EOSINOPHIL” value [1] was 54.67 CELLS/uL and the “ABSOLUTE LYMPHOCYTE” value [1] was 12665.33 CELLS/uL. The “ABSOLUTE MONOCYTE” value [1] was 34.33 CELLS/uL, the “ABSOLUTE SEGMENTED NEUTROPHIL” value [1] was 1712.33 CELLS/uL and the BASOPHIL [1] was 0%. For the same compound, the EOSINOPHIL [1] was 0.33%, the “ERYTHROCYTE COUNT” value [1] was 5.75 x10E6/uL and the HEMATOCRIT [1] was 35.5%. The HEMOGLOBIN [1] was 14.03 G/DL, the “LEUKOCYTE COUNT” value [1] was 14.47 x10E3/uL and the LYMPHOCYTE [1] was 87%. For the same compound, the “MEAN CORPUSCULAR HEMOGLOBIN” value [1] was 24.43 pg, the “MEAN CORPUSCULAR HEMOGLOBIN CONCENTRATION” value [1] was 39.53 G/DL and the “MEAN CORPUSCULAR VOLUME” value [1] was 61.77 fL. For the same compound, the MONOCYTE [1] was 0.33%, the NEUTROPHIL [1] was 12.33% and the “NUCLEATED RED BLOOD CELLS” value [1] was 0.33 /100WBC. For the same compound, the “PLATELET COUNT” value [1] was 1147.33 x10E3/uL, the “ALANINE AMINOTRANSFERASE” value [1] was 63.67 u/L and the ALBUMIN [1] was 4.37 G/DL. For the same compound, the “ALKALINE PHOSPHATASE” value [1] was 342 u/L, the “ASPARTATE AMINOTRANSFERASE” value [1] was 93.33 u/L and the “BLOOD UREA NITROGEN” value [1] was 15 mg/dL. The “CARBON DIOXIDE” value [1] was 28 mmol/L, the CHLORIDE [1] was 101.33 MEQ/L and the CHOLESTEROL [1] was 50.67 mg/dL. The “CREATINE PHOSPHOKINASE” value [1] was 370.33 u/L, the CREATININE [1] was 0.2 mg/dL and the GLUCOSE [1] was 145.33 mg/dL. For the same compound, the “LACTATE DEHYDROGENASE” value [1] was 275.67 u/L, the LIPASE [1] was 9.67 u/L and the PHOSPHORUS [1] was 11.03 mg/dL. For the same compound, the POTASSIUM [1] was 5.96 MEQ/L, the SODIUM [1] was 142.3 MEQ/L and the “TOTAL BILIRUBIN” value [1] was 0.2 mg/dL. The “TOTAL PROTEIN” value [1] was 5.73 G/DL, the “URIC ACID” value [1] was 1.23 mg/dL and the “ABSOLUTE BASOPHIL” value [2] was 0 CELLS/uL. The “ABSOLUTE EOSINOPHIL” value [2] was 0 CELLS/uL, the “ABSOLUTE LYMPHOCYTE” value [2] was 10222.33 CELLS/uL and the “ABSOLUTE MONOCYTE” value [2] was 204.67 CELLS/uL. For the same compound, the “ABSOLUTE SEGMENTED NEUTROPHIL” value [2] was 1606.33 CELLS/uL, the BASOPHIL [2] was 0% and the EOSINOPHIL [2] was 0%. The “ERYTHROCYTE COUNT” value [2] was 5.53 x10E6/uL, the HEMATOCRIT [2] was 33.9% and the HEMOGLOBIN [2] was 13.1 G/DL. The “LEUKOCYTE COUNT” value [2] was 12.03 x10E3/uL, the LYMPHOCYTE [2] was 85% and the “MEAN CORPUSCULAR HEMOGLOBIN” value [2] was 23.73 pg. The “MEAN CORPUSCULAR HEMOGLOBIN CONCENTRATION” value [2] was 38.63 G/DL, the “MEAN CORPUSCULAR VOLUME” value [2] was 61.37 fL and the MONOCYTE [2] was 1.67%. For the same compound, the NEUTROPHIL [2] was 13.33%, the “NUCLEATED RED BLOOD CELLS” value [2] was 0 /100WBC and the “PLATELET COUNT” value [2] was 1067.33 x10E3/uL. For the same compound, the “ALANINE AMINOTRANSFERASE” value [2] was 82.33 u/L, the ALBUMIN [2] was 4.4 G/DL and the “ALKALINE PHOSPHATASE” value [2] was 525.33 u/L. The “ASPARTATE AMINOTRANSFERASE” value [2] was 118.33 u/L, the “BLOOD UREA NITROGEN” value [2] was 13.33 mg/dL and the “CARBON DIOXIDE” value [2] was 33 mmol/L. The CHLORIDE [2] was 98.33 MEQ/L, the CHOLESTEROL [2] was 39 mg/dL and the “CREATINE PHOSPHOKINASE” value [2] was 203.67 u/L. The CREATININE [2] was 0.14 mg/dL, the GLUCOSE [2] was 149.33 mg/dL and the “LACTATE DEHYDROGENASE” value [2] was 172.67 u/L. It also gave an LIPASE [2] of 8 u/L, a PHOSPHORUS [2] of 11.27 mg/dL and a POTASSIUM [2] of 6.66 MEQ/L. The SODIUM [2] was 140.57 MEQ/L, the “TOTAL BILIRUBIN” value [2] was 0.17 mg/dL and the “TOTAL PROTEIN” value [2] was 5.33 G/DL. For the same compound, the “URIC ACID” value [2] was 1.37 mg/dL, the “ABSOLUTE BASOPHIL” value [3] was 0 CELLS/uL and the “ABSOLUTE EOSINOPHIL” value [3] was 0 CELLS/uL. For the same compound, the “ABSOLUTE LYMPHOCYTE” value [3] was 14966.67 CELLS/uL, the “ABSOLUTE MONOCYTE” value [3] was 437.33 CELLS/uL and the “ABSOLUTE SEGMENTED NEUTROPHIL” value [3] was 2729.33 CELLS/uL. The BASOPHIL [3] was 0%, the EOSINOPHIL [3] was 0% and the “ERYTHROCYTE COUNT” value [3] was 5.64 x10E6/uL. The HEMATOCRIT [3] was 35.03%, the HEMOGLOBIN [3] was 13.4 G/DL and the “LEUKOCYTE COUNT” value [3] was 18.13 x10E3/uL. The LYMPHOCYTE [3] was 82.67%, the “MEAN CORPUSCULAR HEMOGLOBIN” value [3] was 23.77 pg and the “MEAN CORPUSCULAR HEMOGLOBIN CONCENTRATION” value [3] was 38.27 G/DL. For the same compound, the “MEAN CORPUSCULAR VOLUME” value [3] was 62.17 fL, the MONOCYTE [3] was 2.33% and the NEUTROPHIL [3] was 15%. For the same compound, the “NUCLEATED RED BLOOD CELLS” value [3] was 0 /100WBC, the “PLATELET COUNT” value [3] was 1012.67 x10E3/uL and the “ALANINE AMINOTRANSFERASE” value [3] was 61 u/L. The ALBUMIN [3] was 4.6 G/DL, the “ALKALINE PHOSPHATASE” value [3] was 409.33 u/L and the “ASPARTATE AMINOTRANSFERASE” value [3] was 90.67 u/L. The “BLOOD UREA NITROGEN” value [3] was 17.33 mg/dL, the “CARBON DIOXIDE” value [3] was 28.33 mmol/L and the CHLORIDE [3] was 106.67 MEQ/L. The CHOLESTEROL [3] was 46.33 mg/dL, the “CREATINE PHOSPHOKINASE” value [3] was 195.67 u/L and the CREATININE [3] was 0.19 mg/dL. For the same compound, the GLUCOSE [3] was 158 mg/dL, the “LACTATE DEHYDROGENASE” value [3] was 194.33 u/L and the LIPASE [3] was 9.33 u/L. For the same compound, the PHOSPHORUS [3] was 9.7 mg/dL, the POTASSIUM [3] was 6.4 MEQ/L and the SODIUM [3] was 149.4 MEQ/L. For the same compound, the “TOTAL BILIRUBIN” value [3] was 0.1 mg/dL, the “TOTAL PROTEIN” value [3] was 5.63 G/DL and the “URIC ACID” value [3] was 1.5 mg/dL.
